In US20120294871A1, “MODULATION OF GPCR-MEDIATED CAMP PRODUCTION THROUGH LRP6 AND ITS THERAPEUTIC APPLICATION” (THE JOHNS HOPKINS UNIVERSITY, priority 2011, published 2012):

Key:
LRP6-Gαs interaction = test: Coimmunoprecipitation and Western blotting of LRP6-associated G proteins in HEK 293 cells; format: cell-based, human
Experimental: (§1) Cell Culture, Transfections, Coimmunoprecipitation, and Western Blotting Analysis. HEK293,UMR-106,C2C12, and MEF cells were maintained in Dulbecco's modified Eagle's medium (DMEM) with 10% fetal calf serum (FCS). Transfections were performed with Lipofectamine reagent (Invitrogen). Immunoprecipitations and Western blotting analysis of cell lysates were performed as described previously (37). Briefly, cells were lysed in immunoprecipitation buffer [50 mM tris-HCl (pH7.5), 150 mM NaCl, 1% Triton X-100, and 0.5% sodium deoxycholate containing protease inhibitors. The lysates were subjected to immunoprecipitation by incubation with the appropriate antibodies followed by absorption on protein G-Sepharose. The immunoprecipitates were separated by SDS-polyacrylamide gel electrophoresis (SDS-PAGE) and transferred onto a nitrocellulose membrane. Western blots were characterized with the SuperSignal West Femto Substrate system (Pierce, Thermo Fisher Scientific Inc.). Primary antibodies used for Western blotting analysis and immunoprecipitations included mouse antibody against the FLAG tag (M2, Sigma-Aldrich), rabbit antibody against VSVG (Covance), mouse antibody against the HA tag (16B12, Covance), rabbit antibody against PTH1R, (PRB-640P, Covance), rabbit antibodies against CREB and phosphorylated CREB (pCREB) (both from Upstate), and rabbit antibody against Gαs and mouse antibody against Gb1 (both from Santa Cruz Biotechnology).

LRP5-Gαs interaction = test: Coimmunoprecipitation and Western blotting of LRP5-associated Gαs in HEK 293 cells; format: cell-based, human; settings: HEK 293 cells with PTH1R and HA-tagged LRP5, PTH(1-34) 50 nM
Experimental: as §1, with “Primary antibodies used for Western blotting analysis and immunoprecipitations included mouse antibody against the FLAG tag (M2, Sigma-Aldrich), rabbit antibody against VSVG (Covance), mouse antibody against the HA tag (16B12, Covance), rabbit antibody against PTH1R, (PRB-640P, Covance), rabbit antibodies against CREB and phosphorylated CREB (pCREB) (both from Upstate), and rabbit antibody against Gαs and mouse antibody against Gb1 (both from Santa Cruz Biotechnology).” left out

cAMP production = test: ICUE3 FRET biosensor, cAMP kinetics in live HEK 293 cells; format: cell-based, human; settings: PTH(1-34) 50 nM
Source text: Detection of the Temporal Dynamics of cAMP Signaling in Living Cells. The binding of cAMP to Epac induces a conformational change that liberates the catalytic domain of Epac from intrasubunit allosteric inhibition (42). A chimeric protein (ICUE3) generated by fusing the N terminus of a truncated form of Epac to enhanced CFP (ECFP) and the C terminus of Epac to citrine, an improved version of yellow fluorescent protein (YFP), was produced as previously described (43). Sandwiching these conformationally responsive elements of Epac between a FRET pair (citrine and ECFP) enables cAMP production and degradation to be monitored by detecting changes in FRET. Therefore, changes in cAMP could be monitored in real time in single live cells. Experiments were performed as previously described (41). […] The ratios of cyan-to-yellow emissions were then calculated at different time points and normalized by dividing all of the ratios by the emission ratio just before stimulation, thereby setting the basal emission ratio to 1. […] The fluorescence intensities of ECFP before (Fda) and after (Fd) citrine photobleaching and the equation E=1−(Fda/Fd) were used to calculate the FRET efficiency.

[1] = test system: T1, Glutathione S-transferase (GST)-fused cytoplasmic domain of LRP6
T1 sequence: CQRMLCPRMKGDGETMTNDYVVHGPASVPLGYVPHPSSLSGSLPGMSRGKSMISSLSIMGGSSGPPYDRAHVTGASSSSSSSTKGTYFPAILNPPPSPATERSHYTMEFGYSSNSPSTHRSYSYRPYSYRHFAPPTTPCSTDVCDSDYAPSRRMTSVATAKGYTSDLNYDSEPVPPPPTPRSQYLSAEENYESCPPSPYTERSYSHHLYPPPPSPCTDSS

[2] = test system: GST-fused cytoplasmic domain of LRP6 with the PKA site mutated (Thr1548 to Ala)
[3] = test system: GST-fused cytoplasmic domain of LRP6 with the GSK-3 site mutated (Ser1544 to Ala)
[4] = test system: Glutathione S-transferase (GST)-fused cytoplasmic domain of LRP5 [GST: P08515]
Chain of Glutathione S-transferase (GST)-fused cytoplasmic domain of LRP5 [GST: P08515] (P08515 whole entry, looked up, the tested form may be a part): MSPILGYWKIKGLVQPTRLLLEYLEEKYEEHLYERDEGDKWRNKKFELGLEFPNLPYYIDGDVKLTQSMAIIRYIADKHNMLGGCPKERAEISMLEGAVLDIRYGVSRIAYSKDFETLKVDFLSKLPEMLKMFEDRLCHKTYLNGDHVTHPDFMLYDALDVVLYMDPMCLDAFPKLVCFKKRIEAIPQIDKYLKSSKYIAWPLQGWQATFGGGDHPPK

[5] = target: T2, VSVG-tagged LRP6 (wild type) (human, UniProt O75581 20-1613); test: co-immunoprecipitation and Western blotting, HEK 293 cells
T2 construct: also called WT-LRP6; WT LRP6; not shown: VSVG tag

[6] = lysis buffer containing AlF4− (100 mM AlCl3, 10 mM NaF)

5′-UGCCAAGAAGGCUGAGUCG-3′ (listed as RNA, chemistry not given here) [siRNA specific for axin]
PTH-induced interaction between Gαs and LRP6 (LRP6-Gαs interaction; knockdown of axin vs scrambled control siRNA, PTH(1-34) 50 nM): not affected

[F][Al-]([F])([F])[F] [AlF4^−]
interaction of LRP6 with Gαs (LRP6-Gαs interaction; [6]): blocked
interaction of LRP6 with Gβ1 (LRP6-Gαs interaction; [6]): blocked

PTH(1-34): a C-terminal-truncated synthetic analog of PTH that has an anabolic effect on bone formation in humans (SVSEIQLMHNLGKHLNSMERVEWLRKKLQDVHNF)
association of Gαs with LRP5 (LRP5-Gαs interaction): did not enhance
time to plateau of the cyan-to-yellow emission ratio (cAMP production): 4 to 6 min
time to rapid change in the ratio of cyan-to-yellow emissions (indication of cAMP production) (cAMP production): ≤ 30 s
interaction between Gαs and LRP6 (LRP6-Gαs interaction; HEK 293 cells with PTH1R and VSVG-tagged LRP6, PTH(1-34) 50 nM, within S min of treatment, further enhanced at 30 min): enhanced

Recombinant GSK-3
in vitro kinase assay (PKA with cold ATP, then GSK-3 with [γ-32P]ATP) [1]: pretreatment with recombinant PKA enhanced the phosphorylation of LRP6 by GSK-3
in vitro kinase assay (sequential PKA and GSK-3) [2]: Both mutants abolished the phosphorylation of LRP6 by GSK-3
in vitro kinase assay (sequential PKA and GSK-3) [3]: Both mutants abolished the phosphorylation of LRP6 by GSK-3

Recombinant catalytic subunit of PKA
in vitro kinase assay ([γ-32P]ATP, PhosphorImager) [1]: the intracellular domain of LRP6 (LRP6C) was phosphorylated by PKA
in vitro kinase assay ([γ-32P]ATP, PhosphorImager) [2]: Only alteration of Thr^1548 abolished the phosphorylation of LRP6C by PKA
in vitro kinase assay ([γ-32P]ATP, PhosphorImager) [4]: the intracellular domain of LRP5 was not phosphorylated

B1: Gαs (endogenous, from HEK 293 cell lysates) (other, human, UniProt P63092 2-394, looked up)
chain: GCLGNSKTEDQRNEEKAQREANKKIEKQLQKDKQVYRATHRLLLLGAGESGKSTIVKQMRILHVNGFNGEGGEEDPQAARSNSDGEKATKVQDIKNNLKEAIETIVAAMSNLVPPVELANPENQFRVDYILSVMNVPDFDFPPEFYEHAKALWEDEGVRACYERSNEYQLIDCAQYFLDKIDVIKQADYVPSDQDLLRCRVLTSGIFETKFQVDKVNFHMFDVGGQRDERRKWIQCFNDVTAIIFVVASSSYNMVIREDNQTNRLQEALNLFKSIWNNRWLRTISVILFLNKQDLLAEKVLAGKSKIEDYFPEFARYTTPEDATPEPGEDPRVTRAKYFIRDEFLRISTASGDGRHYCYPHFTCAVDTENIRRVFNDCRDIIQRMHLRQYELL
notes: Present in whole-cell lysate, so other proteins (Gβγ) may be associated with it; also called Gas; αs subunit of the G protein
binding result [5]: binds
